Consider 1 molecule from patent US8772576B2, “Herbicide-resistant inoculant strains” (priority 2009, dated 2014).

One experiment relates to parent strain ABM201. In words: Growth of parent strain on Vincent's YEM agar amended with glyphosate. It is filed as cell-based, Bradyrhizobium japonicum. As to the method:
(§1) After the plates were sufficiently dry, about 10^8 to 5×10^8 colony-forming units (CFU) of the parent bacteria (ABM201) (Advanced Biological Marketing, Van Wert, Ohio), determined by serial dilution and plating on nonselective medium, were spread with a sterile, bent glass rod. The plates were carefully wrapped with Parafilm® to prevent the desiccation of the agar growth medium during prolonged incubation. The plates were then incubated at room temperature to 30° C. for approximately 2 to 3 weeks.

In experiment [1] the test system is herbicide resistant mutants of B. japonicum strain ABM 201. The experiment is described as follows: Growth of glyphosate-resistant mutant on Vincent's YEM agar amended with glyphosate. The class given is cell-based, Bradyrhizobium japonicum. Conditions: 80 ppm glyphosate; exemplary embodiment (resistant mutant). As to the method: as §1
Colonies that developed resembled the parent strain and its growth characteristics on non-selective YEM medium. The colonies were convex, entirely opaque, smooth, and only about 1 mm in diameter after 10-14 days of incubation. Mutant frequency was about 5×10^−7 to 1×10^−6.

For the molecule `O=C(O)CNCP(=O)(O)O` [glyphosate, N-(phosphonomethyl)glycine], the “glyphosate concentration that totally inhibits the parent strain” value in the experiment on parent strain ABM201 was “less than 40 ppm”. For the same molecule, the “growth and viability on glyphosate” value in experiment [1] was “normal growth and viability”.
